Test results: patent publication US20240058464A1 (Fortis Therapeutics, Inc., priority 2021, published 2024)
Where a SMILES comes first, the peptide text is derived from it. [ ]: non-standard residue; d: D form. The star is where a group is joined. dPhe(4-NHCONH2) = NC(=O)Nc1ccc(C[C@@H](N)C(=O)O)cc1; Dihydroorotyl(S) = O=C1C[C@@H](C(=O)*)NC(=O)N1; dPhe(4-Cl) = N[C@H](Cc1ccc(Cl)cc1)C(=O)O; Phe(4-NH2) = Nc1ccc(C[C@H](N)C(=O)O)cc1; d2Nal = N[C@H](Cc1ccc2ccccc2c1)C(=O)O; Lys(iPr) = CC(C)NCCCC[C@H](N)C(=O)O; d3Pal = N[C@H](Cc1cccnc1)C(=O)O

Test system: CD46 expression
Assay: CD46 expression by RNA-sequencing in unpaired pre-treatment and post-treatment tumor biopsies
Format: in vivo, human
Settings: for CD46 expression Pre: pre-treatment biopsies
[1] = Colorectal Cancer, Post minus Pre, unpaired biopsies, log2-transformed counts
[2] = Colorectal Cancer, post- vs pre-treatment unpaired biopsies
[3] = Colorectal Cancer, post-treatment biopsies, unpaired, RNA-seq log2-transformed normalized counts
[4] = Breast Cancer, Post minus Pre, unpaired biopsies, log2-transformed counts
[5] = Breast Cancer, post- vs pre-treatment unpaired biopsies
[6] = Breast Cancer, post-treatment biopsies, unpaired, RNA-seq log2-transformed normalized counts
[7] = Endocrine Tumor, Post minus Pre, unpaired biopsies, log2-transformed counts
[8] = Endocrine Tumor, post- vs pre-treatment unpaired biopsies
[9] = Endocrine Tumor, post-treatment biopsies, unpaired, RNA-seq log2-transformed normalized counts
[10] = Non-Small Cell Lung Cancer, Post minus Pre, unpaired biopsies, log2-transformed counts
[11] = Non-Small Cell Lung Cancer, post- vs pre-treatment unpaired biopsies
[12] = Non-Small Cell Lung Cancer, post-treatment biopsies, unpaired, RNA-seq log2-transformed normalized counts
[13] = Sarcoma, Post minus Pre, unpaired biopsies, log2-transformed counts
[14] = Sarcoma, post- vs pre-treatment unpaired biopsies
[15] = Sarcoma, post-treatment biopsies, unpaired, RNA-seq log2-transformed normalized counts
[16] = Non-Small Cell Lung Cancer, post minus pre, unpaired biopsies
[17] = Non-Small Cell Lung Cancer, post vs pre, unpaired biopsies
[18] = Non-Small Cell Lung Cancer, post-treatment biopsies, log2-transformed RNA-seq counts
[19] = Clear Cell Renal Cell Carcinoma, post minus pre, unpaired biopsies
[20] = Clear Cell Renal Cell Carcinoma, post vs pre, unpaired biopsies
[21] = Clear Cell Renal Cell Carcinoma, post-treatment biopsies, log2-transformed RNA-seq counts

## CO[C@@]12[C@H](COC(N)=O)C3=C(C(=O)C(C)=C(N)C3=O)N1C[C@@H]1N[C@@H]12 [mitomycin]
[1]
  CD46 expression diff: 0.23
[2]
  CD46 expression Percentage change: 3.9%
[3]
  CD46 expression Post: 5.93

## COc1cc2nccc(Oc3ccc(NC(=O)C4(C(=O)Nc5ccc(F)cc5)CC4)cc3)c2cc1OC [cabozantinib]
Clear Cell Renal Cell Carcinoma, Post minus Pre, unpaired biopsies, log2-transformed counts
  CD46 expression diff: −0.12
Clear Cell Renal Cell Carcinoma, post- vs pre-treatment unpaired biopsies
  CD46 expression Percentage change: −2.1%
Clear Cell Renal Cell Carcinoma, post-treatment biopsies, unpaired, RNA-seq log2-transformed normalized counts
  CD46 expression Post: 5.44

## CO[C@H]1C[C@@H]2CC[C@@H](C)[C@@](O)(O2)C(=O)C(=O)N2CCCC[C@H]2C(=O)O[C@H]([C@H](C)C[C@@H]2CC[C@@H](OCCO)[C@H](OC)C2)CC(=O)[C@H](C)/C=C(\C)[C@@H](O)[C@@H](OC)C(=O)[C@H](C)C[C@H](C)/C=C/C=C/C=C/1C [everolimus]
[4]
  CD46 expression diff: 0.09
[5]
  CD46 expression Percentage change: 1.4%
[6]
  CD46 expression Post: 6.46

## ado-trastuzumab emtansine
In vivo
  CD46 expression Percentage change: −0.8%
  CD46 expression Post: 6.20
  CD46 expression diff: −0.05

## COc1cc([C@@H]2c3cc4c(cc3[C@@H](O[C@@H]3O[C@@H]5CO[C@@H](C)O[C@H]5[C@H](O)[C@H]3O)[C@H]3COC(=O)[C@H]23)OCO4)cc(OC)c1O [etoposide]
[7]
  CD46 expression diff: 0.11
[8]
  CD46 expression Percentage change: 2.0%
[9]
  CD46 expression Post: 5.79
[10]
  CD46 expression diff: 0.10
[11]
  CD46 expression Percentage change: 1.7%
[12]
  CD46 expression Post: 5.98
[13]
  CD46 expression diff: 0.30
[14]
  CD46 expression Percentage change: 6.2%
[15]
  CD46 expression Post: 5.13

## denosumab
[4]
  CD46 expression diff: 0.40
[5]
  CD46 expression Percentage change: 6.2%
[6]
  CD46 expression Post: 6.82

## O=P(O)(O)C(O)(Cn1ccnc1)P(=O)(O)O [zoledronic acid]
[4]
  CD46 expression diff: 0.41
[5]
  CD46 expression Percentage change: 6.4%
[6]
  CD46 expression Post: 6.78

## C[C@H]1C[C@@H]2[C@H]([C@@H](O)C[C@@]3(C)[C@H]2CC[C@]3(O)C(=O)CO)[C@@]2(C)C=CC(=O)C=C12 [methylprednisolone]
[4]
  CD46 expression diff: 0.31
[5]
  CD46 expression Percentage change: 5.0%
[6]
  CD46 expression Post: 6.49
[10]
  CD46 expression diff: −0.04
[11]
  CD46 expression Percentage change: −0.6%
[12]
  CD46 expression Post: 6.16

## CCC1=C[C@@H]2CN(C1)Cc1c([nH]c3ccccc13)[C@@](C(=O)OC)(c1cc3c(cc1OC)N(C)[C@H]1[C@@](O)(C(=O)OC)[C@H](OC(C)=O)[C@]4(CC)C=CCN5CC[C@]31[C@@H]54)C2 [vinorelbine]
[4]
  CD46 expression diff: −0.13
[5]
  CD46 expression Percentage change: −2.0%
[6]
  CD46 expression Post: 6.24
[16]
  CD46 expression diff: −0.20
[17]
  CD46 expression Percentage change: −3.3%
[18]
  CD46 expression Post: 5.98

## CNC(=O)c1ccc(N2C(=S)N(c3cnc(C#N)c(C(F)(F)F)c3)C(=O)C23CCC3)cc1F [apalutamide]
Prostate Cancer, Post minus Pre, unpaired biopsies, log2-transformed counts
  CD46 expression diff: −0.03
Prostate Cancer, post- vs pre-treatment unpaired biopsies
  CD46 expression Percentage change: −0.5%
Prostate Cancer, post-treatment biopsies, unpaired, RNA-seq log2-transformed normalized counts
  CD46 expression Post: 6.14

## CC[C@]1(O)C[C@@H]2CN(CCc3c([nH]c4ccccc34)[C@@](C(=O)OC)(c3cc4c(cc3OC)N(C)[C@H]3[C@@](O)(C(=O)OC)[C@H](OC(C)=O)[C@]5(CC)C=CCN6CC[C@]43[C@@H]65)C2)C1 [vinblastine]
Bladder Cancer, post minus pre, unpaired biopsies
  CD46 expression diff: −0.24
Bladder Cancer, post vs pre, unpaired biopsies
  CD46 expression Percentage change: −3.9%
Bladder Cancer, post-treatment biopsies, log2-transformed RNA-seq counts
  CD46 expression Post: 5.89

## COc1cc2nccc(Oc3ccc(NC(=O)NC4CC4)c(Cl)c3)c2cc1C(N)=O [lenvatinib]
Thyroid Cancer, Post minus Pre, unpaired biopsies, log2-transformed counts
  CD46 expression diff: −0.02
Thyroid Cancer, post- vs pre-treatment unpaired biopsies
  CD46 expression Percentage change: −0.4%
Thyroid Cancer, post-treatment biopsies, unpaired, RNA-seq log2-transformed normalized counts
  CD46 expression Post: 5.82

## C#Cc1cccc(Nc2ncnc3cc(OCCOC)c(OCCOC)cc23)c1 [erlotinib]
[10]
  CD46 expression diff: −0.04
[11]
  CD46 expression Percentage change: −0.6%
[12]
  CD46 expression Post: 6.23

## CC(C)C[C@H](NC(=O)[C@@H](COC(C)(C)C)NC(=O)[C@H](Cc1ccc(O)cc1)NC(=O)[C@H](CO)NC(=O)[C@H](Cc1c[nH]c2ccccc12)NC(=O)[C@H](Cc1cnc[nH]1)NC(=O)[C@@H]1CCC(=O)N1)C(=O)N[C@@H](CCCNC(=N)N)C(=O)N1CCC[C@H]1C(=O)NNC(N)=O [goserelin]
[4]
  CD46 expression diff: 0.00
[5]
  CD46 expression Percentage change: −0.1%
[6]
  CD46 expression Post: 6.38

## CC(=O)N[C@H](Cc1ccc2ccccc2c1)C(=O)N[C@H](Cc1ccc(Cl)cc1)C(=O)N[C@H](Cc1cccnc1)C(=O)N[C@@H](CO)C(=O)N[C@@H](Cc1ccc(NC(=O)[C@@H]2CC(=O)NC(=O)N2)cc1)C(=O)N[C@H](Cc1ccc(NC(N)=O)cc1)C(=O)N[C@@H](CC(C)C)C(=O)N[C@@H](CCCCNC(C)C)C(=O)N1CCC[C@H]1C(=O)N[C@H](C)C(N)=O [degarelix] (Ac-[d2Nal][dPhe(4-Cl)][d3Pal]S[Phe(4-NH2)](Dihydroorotyl(S))[dPhe(4-NHCONH2)]L[Lys(iPr)]P[dA]-NH2)
Prostate Cancer, post minus pre, unpaired biopsies
  CD46 expression diff: −0.29
Prostate Cancer, post vs pre, unpaired biopsies
  CD46 expression Percentage change: −4.6%
Prostate Cancer, post-treatment biopsies, log2-transformed RNA-seq counts
  CD46 expression Post: 5.94
Prostate Cancer, log2-transformed RNA-seq counts
  CD46 expression Pre: 6.23

## ramucirumab
[16]
  CD46 expression diff: −0.17
[17]
  CD46 expression Percentage change: −2.8%
[18]
  CD46 expression Post: 6.13
Non-Small Cell Lung Cancer, log2-transformed RNA-seq counts
  CD46 expression Pre: 6.30

## pertuzumab
[4]
  CD46 expression diff: −0.08
[5]
  CD46 expression Percentage change: −1.3%
[6]
  CD46 expression Post: 6.25

## CC(=O)Nc1cccc(-n2c(=O)n(C3CC3)c(=O)c3c(Nc4ccc(I)cc4F)n(C)c(=O)c(C)c32)c1 [trametinib]
Melanoma, Post minus Pre, unpaired biopsies, log2-transformed counts
  CD46 expression diff: 0.08
Melanoma, post- vs pre-treatment unpaired biopsies
  CD46 expression Percentage change: 1.4%
Melanoma, post-treatment biopsies, unpaired, RNA-seq log2-transformed normalized counts
  CD46 expression Post: 5.39

## olaratumab
[13]
  CD46 expression diff: 0.11
[14]
  CD46 expression Percentage change: 2.3%
[15]
  CD46 expression Post: 5.10

## CS(=O)(=O)CCNCc1ccc(-c2ccc3ncnc(Nc4ccc(OCc5cccc(F)c5)c(Cl)c4)c3c2)o1 [lapatinib]
[4]
  CD46 expression diff: −0.08
[5]
  CD46 expression Percentage change: −1.2%
[6]
  CD46 expression Post: 6.22

## N[C@@H](Cc1cc(I)c(Oc2cc(I)c(O)c(I)c2)c(I)c1)C(=O)O [levothyroxine]
[16]
  CD46 expression diff: −0.17
[17]
  CD46 expression Percentage change: −2.9%
[18]
  CD46 expression Post: 5.87

## CN(C)C(=O)c1cc2cnc(Nc3ccc(N4CCNCC4)cn3)nc2n1C1CCCC1 [ribociclib]
Breast Cancer, post minus pre, unpaired biopsies
  CD46 expression diff: −0.17
Breast Cancer, post vs pre, unpaired biopsies
  CD46 expression Percentage change: −2.6%
Breast Cancer, post-treatment biopsies, log2-transformed RNA-seq counts
  CD46 expression Post: 6.30

## C[C@@H](Oc1cc(-c2cnn(C3CCNCC3)c2)cnc1N)c1c(Cl)ccc(F)c1Cl [crizotinib]
[10]
  CD46 expression diff: 0.16
[11]
  CD46 expression Percentage change: 2.7%

## CN(C)C/C=C/C(=O)Nc1cc2c(Nc3ccc(F)c(Cl)c3)ncnc2cc1O[C@H]1CCOC1 [afatinib]
[10]
  CD46 expression diff: 0.11
[11]
  CD46 expression Percentage change: 1.7%
[12]
  CD46 expression Post: 6.43

## CNC(=O)c1ccccc1Sc1ccc2c(/C=C/c3ccccn3)n[nH]c2c1 [axitinib]
[19]
  CD46 expression diff: −0.29
[20]
  CD46 expression Percentage change: −5.1%
[21]
  CD46 expression Post: 5.43

## C[C@@H](O)[C@@H]1NC(=O)[C@H](CCCCN)NC(=O)[C@@H](Cc2c[nH]c3ccccc23)NC(=O)[C@H](Cc2ccccc2)NC(=O)[C@@H](NC(=O)[C@H](N)Cc2ccccc2)CSSC[C@@H](C(=O)N[C@H](CO)[C@@H](C)O)NC1=O [octreotide]
[7]
  CD46 expression diff: −0.05
[8]
  CD46 expression Percentage change: −0.9%
[9]
  CD46 expression Post: 5.59

## O=S(=O)(O)CCS [mesna]
Sarcoma, post minus pre, unpaired biopsies
  CD46 expression diff: −0.16
Sarcoma, post vs pre, unpaired biopsies
  CD46 expression Percentage change: −3.2%
Sarcoma, post-treatment biopsies, log2-transformed RNA-seq counts
  CD46 expression Post: 4.88

## Cc1ccc(Nc2nccc(N(C)c3ccc4c(C)n(C)nc4c3)n2)cc1S(N)(=O)=O [pazopanib]
[19]
  CD46 expression diff: −0.22
[20]
  CD46 expression Percentage change: −4.0%
[21]
  CD46 expression Post: 5.37
[13]
  CD46 expression diff: −0.10
[14]
  CD46 expression Percentage change: −1.9%
[15]
  CD46 expression Post: 5.03

## CC[C@]1(O)C[C@H]2CN(CCc3c([nH]c4ccccc34)[C@@](C(=O)OC)(c3cc4c(cc3OC)N(C=O)[C@H]3[C@@](O)(C(=O)OC)[C@H](OC(C)=O)[C@]5(CC)C=CCN6CC[C@]43[C@@H]65)C2)C1 [vincristine]
[13]
  CD46 expression diff: −0.03
[14]
  CD46 expression Percentage change: −0.5%
[15]
  CD46 expression Post: 5.09

## CN(C)C(=N)N=C(N)N [metformin]
[1]
  CD46 expression diff: 0.27
[2]
  CD46 expression Percentage change: 4.2%
[3]
  CD46 expression Post: 6.70
[10]
  CD46 expression diff: 0.03
[11]
  CD46 expression Percentage change: 0.5%
[12]
  CD46 expression Post: 6.07

## CCc1cc2c(cc1N1CCC(N3CCOCC3)CC1)C(C)(C)c1[nH]c3cc(C#N)ccc3c1C2=O [alectinib]
[10]
  CD46 expression diff: −0.03
[11]
  CD46 expression Percentage change: −0.5%
[12]
  CD46 expression Post: 6.18
